Measured values: the supplement of paper PMC10307832

Legend:
Test in all cases: relative viability (nuclei count vs DMSO), 5 days (fraction); higher = more cells survive
RAF265 + Crizotinib = compound: Cn1c(Nc2ccc(C(F)(F)F)cc2)nc2cc(Oc3ccnc(-c4ncc(C(F)(F)F)[nH]4)c3)ccc21 [RAF265] + C[C@@H](Oc1cc(-c2cnn(C3CCNCC3)c2)cnc1N)c1c(Cl)ccc(F)c1Cl [Crizotinib] (partner 1 µM)
How it was run: (§1)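 Lung cancer cell lines were seeded in 1536-well plates and dosed by pin tool the next day, with either a single drug or a fixed anchor-drug dose combined with five library-drug doses (not always all listed) spaced in √10 steps. Five days later, one step fixed the cells and stained their nuclei (final 0.05% Triton X-100, 1% formaldehyde, 1 ug/ml Hoechst), and nuclei were counted on 4× images. Relative viability is the nuclei count in treated wells divided by the count in vehicle wells, and each value is the median of duplicate plates.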

Doramapimod + Olaparib = compound: Cc1ccc(-n2nc(C(C)(C)C)cc2NC(=O)Nc2ccc(OCCN3CCOCC3)c3ccccc23)cc1 [Doramapimod] + O=C(c1cc(Cc2n[nH]c(=O)c3ccccc23)ccc1F)N1CCN(C(=O)C2CC2)CC1 [Olaparib] (partner 8 µM)
How it was run: as §1

RAF265 + Linsitinib = compound: Cn1c(Nc2ccc(C(F)(F)F)cc2)nc2cc(Oc3ccnc(-c4ncc(C(F)(F)F)[nH]4)c3)ccc21 [RAF265] + C[C@]1(O)C[C@@H](c2nc(-c3ccc4ccc(-c5ccccc5)nc4c3)c3c(N)nccn32)C1 [Linsitinib] (partner 1 µM)
How it was run: as §1

IPA-3 + Decitabine = compound: C1=CC=C2C(=C1)C=CC(=C2SSC3=C(C=CC4=CC=CC=C43)O)O [IPA-3] + Nc1ncn([C@H]2C[C@H](O)[C@@H](CO)O2)c(=O)n1 [Decitabine] (partner 2 µM)
How it was run: as §1

Cell Line	relative viability (RAF265 + Crizotinib; first compound 0.01 µM)	relative viability (RAF265 + Crizotinib; first compound 0.03162 µM)	relative viability (RAF265 + Crizotinib; first compound 0.1 µM)	relative viability (RAF265 + Crizotinib; first compound 0.3162 µM)	relative viability (RAF265 + Crizotinib; first compound 1 µM)	relative viability (Doramapimod + Olaparib; first compound 0.02 µM)	relative viability (Doramapimod + Olaparib; first compound 0.06325 µM)	relative viability (Doramapimod + Olaparib; first compound 0.2 µM)	relative viability (Doramapimod + Olaparib; first compound 0.6325 µM)	relative viability (Doramapimod + Olaparib; first compound 2 µM)	relative viability (RAF265 + Linsitinib; first compound 0.01 µM)	relative viability (RAF265 + Linsitinib; first compound 0.03162 µM)	relative viability (RAF265 + Linsitinib; first compound 0.1 µM)	relative viability (RAF265 + Linsitinib; first compound 0.3162 µM)	relative viability (RAF265 + Linsitinib; first compound 1 µM)	relative viability (IPA-3 + Decitabine; first compound 0.2 µM)	relative viability (IPA-3 + Decitabine; first compound 0.6325 µM)	relative viability (IPA-3 + Decitabine; first compound 2 µM)	relative viability (IPA-3 + Decitabine; first compound 6.325 µM)	relative viability (IPA-3 + Decitabine; first compound 20 µM)
NCI-H1915	0.875	0.81	0.727	0.496	0.234	0.285	0.287	0.252	0.254	0.233	1.1	1.01	1.03	0.653	0.323	0.277	0.279	0.248	0.262	0.245
NCI-H1944	1.09	1.26	1.08	0.794	0.664	0.394	0.434	0.438	0.409	0.371	1.25	1.37	1.08	0.64	0.716	0.468	0.41	0.456	0.481	0.412
NCI-H1975	0.894	0.77	0.679	0.456	0.451	0.717	0.85	0.864	0.768	0.82	0.855	0.712	0.567	0.43	0.361	0.472	0.368	0.357	0.398	0.356
NCI-H1993	0.725	0.85	0.993	0.759	0.758	0.983	0.908	1.14	1.07	0.794	0.68	0.763	0.66	0.713	0.722	0.611	0.576	0.643	0.547	0.615
NCI-H2009	1.07	0.91	0.96	0.805	0.629	0.669	0.697	0.669	0.712	0.622	1.23	1.12	1.13	1.04	0.788	0.38	0.353	0.444	0.395	0.312
NCI-H2023	0.624	0.58	0.88	0.668	0.478	0.546	0.534	0.491	0.563	0.456	0.588	0.743	0.776	0.644	0.424	0.233	0.225	0.209	0.216	0.2
NCI-H2085	0.696	0.886	0.858	1.05	0.806	0.886	0.844	0.756	0.871	0.823	0.894	0.945	0.938	0.98	0.917	0.58	0.568	0.56	0.502	0.459
NCI-H2087	0.71	0.7	0.818	0.637	0.692	0.562	0.577	0.525	0.675	0.481	0.827	0.844	0.9	0.699	0.587	0.344	0.321	0.267	0.261	0.255
